In patent US12285404B2, “Prevention of rosacea inflammation” (The Regents of the University of California, priority 2013, dated 2025):

Key:
[1] = system: protease that cleaves full length cathelicidin; conditions: cited from earlier work
[2] = system: erythematotelangiectatic rosacea subjects; experiment: Topical 4% cromolyn sodium vs placebo in erythematotelangiectatic rosacea subjects, clinical evaluation and tape strips; format: in vivo, human
Protocol: (a, b) NHEK cells were co-cultured with 100 μl of supernatant of human cord blood-derived MCs after degranulation by 48/80, or serine buffer. (a) After 24 hrs of co-culture, NHEK cells were washed well and MMP and KLK activities in the cells were obtained, and (b) For the comparison of Cath LL-37 mRNA expression in NHEK cells, 100 nM of 1,25(OH)2VD3 was added to same co-culture. (c) 10 erythematotelangiectatic rosacea subjects were randomized to apply a solution containing either the MC stabilizer (4% cromolyn sodium) (n=5) or placebo (n=5) topically. Tape strips were obtained at the first visit (v1) and last visit (v4) and proteases and protein were separately extracted. Statistics: t-test ***p<0.001 (n=3), *p<0.05 (n=5).
2 mm skin biopsies were taken from the faces of healthy and rosacea subjects, as well as tape strips from the face of erythematotelangiectatic rosacea subjects in the dermatology clinic at the University of California, San Diego. All the procedures involving human subjects were approved by the University of California San Diego Institutional Review Board under the IRB number 071032. Ten randomized adults with erythematotelangiectatic rosacea were applied a water-based solution containing either 4% cromolyn sodium or placebo, topically to their face twice a day, for 8 weeks. A clinical evaluation was performed at each visit. A total six tape strips were obtained from right and left cheek at each of the first visit and the final visit.
To test whether the results were reproducible in humans, 10 randomized adults with erythematotelangiectatic rosacea were used to apply a solution containing either the MC stabilizer (4% cromolyn sodium) or placebo, topically to their face twice daily. Six tape strips were obtained from both right and left cheeks, at the time of first visit (v1) and last visit (v4). After eight week (v4), facial erythema levels decreased in the cromolyn treatment group. MMP, KLK activity and Cath LL-37 protein levels were decreased in the cromolyn treatment group with significant activity in MMP observed (FIG. 5c).

WT mice = experiment: MC stabilizer experiment: cromolyn sodium I.P. pretreatment before Cath LL-37 challenge (rosacea mouse model); format: in vivo
Protocol: WT mice were injected I.P. with vehicle or cromolyn sodium (10 mg/kg, per day) for 4 days. 24 hours after the last injection, the mice were injected intradermally with 50 μl of […] Cath LL-37 or PBS, twice a day for 2 days. Skin biopsies were taken after 72 hours of observation and (a) Mmp-9 and Cxcl2 mRNA expressions were assessed by RT-PCR, (b) MMP-9 activity was assessed by measuring cleavage of a MMP fluorogenic substrate with specific inhibitors, and (c) immunohistochemistry was performed on frozen skin sections using antibodies against MMP-9 and FcεRI. DAPI stain was also used, as indicated. Statistics: one-way and two-way ANOVA **p<0.01 (n=3).
Mast cell deficient (C57BL/6-KitWsh^−/−) mice were bred. KitWsh^−/− mice bearing the W-sash (Wsh) inversion mutation have MC deficiency, but lack anemia and sterility. […] Wild type mice (C57BL/6) were utilized as control. Mice were shaved 24 hrs before intradermal injection with 50 μl of 50 μM or 320 μM of Cath LL-37 or filtered PBS (n=3), twice a day for 2 days and skin biopsies were taken after 72 hours of observation. Total RNA was extracted and purified by RNeasy Mini Kit (QIAGEN science). For the time course observation, skin biopsies of WT and MC deficient mice were taken at 1, 4, and 24 hrs after Cath LL-37 injection.
For the MC stabilizer experiment: Cromolyn sodium (0.3 mg/mouse/day) (Sigma-Aldrich, St Louis, MO) in PBS was injected I.P. into WT mice for 4 days.
Total-MMP activities were determined by following previously reported study (Kanada et al., 2012). To determine MMP-9 activity, MMP-9 specific inhibitor I (Thermo Fisher Scientific, Chicago, IL) was used.
cDNA was synthesized from RNA using the iScript cDNA Synthesis Kit (BioRad, Hercules, CA) according to the manufacturer's protocol. cDNA was normalized using a NanoDrop spectrophotometer (Thermo Fisher Scientific Inc.). Probes from TagMan Gene Expression Assays (Applied Biosystems ABI, Foster City, CA) were used to analyze gene expressions with following to the manufacturer's instructions. Gapdh mRNA was used as an internal control to validate RNA for each sample. mRNA expression was calculated as the relative expression to Gapdh mRNA, and all data are presented as fold change of each control.
Fluorescence immunohistochemistry. Mouse skin frozen sections were fixed with acetone, washed in 1×PBS, blocked with 5% goat serum/1% BSA for 30 minutes, and incubated with anti-MMP-9 polyclonal antibody (ABBIOTEC, San Diego, CA). For FcERI detection, anti-mouse FcERI PE (eBioscience, San Diego, CA) was used. Images were obtained using a Zeiss LSM510 laser scanning confocal microscope coupled with an Axiovert 100 inverted stage microscope.
According to the obtained results, MC proteases and MMP-9, which are released from MCs upon stimulation by Cath LL-37, are central in promoting rosacea-like skin inflammation. […] To test this hypothesis, cromolyn sodium, a very well-known MC stabilizer, was injected I.P. into WT mice (10 mg/kg, per day) every day for 4 days before Cath LL-37 challenge. 24 hours after the last cromolyn sodium injection, mice were injected with 50 μl of […] Cath LL-37 or PBS, twice a day for 2 days. […] In addition, frozen skin sections were stained with anti-MMP-9 and anti-FIERI antibodies for the detection of MCs.

[3] = 4% cromolyn sodium topically twice daily, v1 vs v4
[4] = cromolyn pretreated, Cath LL-37 challenged WT mice, biopsies after 72 hours, p<0.01

| Compound | inhibition of the enzyme in vitro [1] | facial erythema levels ([2]; 4% cromolyn sodium solution topically to face twice daily, after eight week (v4), n=5) | Cath LL-37 protein levels (tape strips) [2, 3] | KLK activity (tape strips) [2, 3] | MMP activity (tape strips) ([2]; 4% cromolyn sodium topically twice daily, v1 vs v4, significant, p<0.05 (n=5)) | mast cell (MC) degranulation (WT mice; FIG. 4 legend, cromolyn sodium 10 mg/kg per day I.P. for 4 days, WT mice) | MMP-9 activity in the tissue (WT mice; cromolyn pretreated, Cath LL-37 challenged WT mice, MMP fluorogenic substrate with specific inhibitors, p<0.01) | Cxcl2 mRNA expression in skin (RT-PCR) (WT mice; [4]) | Mmp-9 mRNA expression in skin (RT-PCR) (WT mice; [4]) | skin inflammation (WT mice; cromolyn sodium I.P. 10 mg/kg per day for 4 days, then 50 μl of 320 μm Cath LL-37 intradermally twice a day for 2 days, WT mice) |
| --- | --- | --- | --- | --- | --- | --- | --- | --- | --- | --- |
| NCCc1ccc(S(=O)(=O)F)cc1 [AEBSF, 4-(2-aminoethyl)-benzenesulfonylfluoride] | can inhibit this enzyme in vitro | – | – | – | – | – | – | – | – | – |
| O=C(O)c1cc(=O)c2c(OCC(O)COc3cccc4oc(C(=O)O)cc(=O)c34)cccc2o1 [cromolyn, cromolyn sodium] | – | decreased | decreased | decreased | decreased | prevents mast cell (MC) degranulation | dramatically decreased | significantly decreased | significantly decreased | did not develop |
| aprotinin | can inhibit this enzyme in vitro | – | – | – | – | – | – | – | – | – |
